Patent US11225507B2, “Conformation switchable antimicrobial peptides and methods of using the same” (priority 2017, dated 2022)

Assays:
[1] = tested on: clinical isolated H. pylori stains J99, J99A-7, J99A-9, J99A-11, J99C-8, J99D-1; assay: Growth (OD600) of clinical isolated H. pylori strains with antibiotics; assay type: cell-based, Helicobacter pylori; settings: pH 7.4, 10% CO2, 37° C.
Protocol: FIG. 8. (A) The survival rate of H. pylori after incubation with amoxicillin (273.7 μM) and clarithromycin (133.7 μM) under pH 7.4 or 3.0 for 1 h. […] Concentrations of omeprazole, amoxicillin, and clarithromycin in OAC1 are 20.0 μM, 6.8 μM, and 1.9 μM, respectively; in OAC2 are 40.0 μM, 13.6 μM, and 3.8 μM, respectively; in OAC3 are 80.0 μM, 27.2 μM, and 7.6 μM, respectively. (C) The antibacterial activity of omeprazole (O) and a combination of amoxicillin and clarithromycin (AC) against SS1 at pH 3.0. O1, O2, O3 represents the concentration of omeprazole at 20.0 μM, 40.0 μM, and 80.0 μM, respectively. AC1, AC2, AC3 represents the concentration of amoxicillin and clarithromycin at 6.8 μM and 1.9 μM, 13.6 μM and 3.8 μM, 27.2 μM and 7.6 μM, respectively. The antibiotics were incubated with H. pylori strains for 1 h. The antibacterial activity of amoxicillin (D) and clarithromycin (E) against clinical isolated H. pylori stains, J99, J99A-7, J99A-9, J99A-11, J99C-8, J99D-1. The bacteria were incubated with antibiotics under pH 7.4 in the 10% CO2 incubator (37° C.), and the optical density at 600 nm (OD600) of bacteria were analyzed to determine the growth of bacteria. […] (G) The antibacterial activity of omeprazole (0) and a combination of amoxicillin and clarithromycin (AC) against J99D-1 under pH 3.0.

[2] = tested on: H. pylori SS1; assay: MIC of antibiotics against SS1; assay type: cell-based; settings: Helicobacter pylori
[3] = tested on: H. pylori SS1; assay: H. pylori killing kinetics at various pHs (CFU counting, 1 h); assay type: cell-based, Helicobacter pylori
Protocol: H. pylori killing kinetics at various pHs. The killing kinetics of polypeptides were measured against H. pylori by counting the colony forming units (CFU) of alive bacteria with agar plating. The polypeptides at various concentrations were dissolved in the Tris-HC buffer at various pHs (pH 7.4, 4.0, 3.0). H. pylori were then collected and dispersed in the BB medium supplied with fresh urea (10 mM) and 10% FBS at different pHs (pH 7.4, 4.0, 3.0). The optical density at 600 nm of the bacteria were fixed at 0.1. The bacteria were then incubated with the polypeptides solution at corresponding pH in the incubator supplied with 10% CO2 at 37° C. Samples were taken for a series of ten-fold dilutions, and plated out in BB agar plates with 10% FBS and vancomycin (pH 7.4) after 1 h incubation. The plates were incubated for 72 h in the incubator and the bacteria were counted for CFU. Bacteria incubated with Tris-HCl buffer only at corresponding pH were served as 100% survival. Survival rate (%)=CFU of bacteria treated with polypeptides/CFU of bacteria treated with buffer×100%. The killing kinetics of antibiotics (OAC, omeprazole, amoxicillin, clarithromycin) against H. pylori were determined with a similar procedure. The antibiotics at various concentrations were dissolved in the Tris-HCl buffer at pH 7.4, or 3.0, and were then incubated with H. pylori in BB medium supplied with fresh urea (10 mM) and 10% FBS at corresponding pH in the incubator. After 1 h incubation, the bacteria were collected by centrifuge at 10,000 rcf for 5 min and washed with fresh BB medium. Samples were then taken for a series of ten-fold dilutions, and plated out in BB agar plates with 10% FBS and vancomycin. The plates were incubated for 72 h in the incubator and the bacteria were counted for CFU.

[4] = Liposome dye leakage assay (ANTS/DPX efflux)
Protocol: Liposome dye leakage assay. ANTS (12.5 mM) and DPX (45 mM) were dissolved in Tris buffer (pH=7.4). To a clean round-bottom flask, appropriate volumes of lipid stocks were added to make up 1 mL of CHCl3 (3:1 POPE (1-palmitoyl-2-oleoyl-sn-glycero-3-phosphoethanolamine)/POPG (1-palmitoyl-2-oleoyl-sn-glycero-3-phospho-(1′-rac-glycerol) (sodium salt)) vesicles, POPE (130 μL, 25 mg/mL CHCl3) and POPG (115 μL, 10 mg/mL CHCl3) were used). The solvent was removed by a stream of nitrogen gas to obtain a thin lipid film, which was then hydrated by 1 mL of ANTS/DPX solution. The mixture was left to hydrate for 1 h, after which it was subjected to 10 freeze-thaw cycles (using dry ice/acetone to freeze and warm water to thaw). The suspension was extruded 20 times through a polycarbonate membrane with 400 nm pore diameter. The excess dye was removed using Sephadex G-50 column as the eluent. The dye-filled vesicle fractions were diluted 200 times with Tris buffer. This suspension (90 μL) was subsequently mixed with polypeptide stock solutions (10 μL) at various pH (pH 7.4 or 4.0) on a 96-well black microplate (Greiner, flat bottom). Tris buffer (10 μL, pH 7.4 or 4.0) and Triton-X (0.1% v/v, 10 μL, pH 7.4 or 4.0) were employed as the negative and positive controls at corresponding pH, respectively. After 30 min, the fluorescence intensity in each well was recorded using the microplate reader with excitation and emission wavelengths of 380 and 520 nm, respectively. The percentage of leaked […] dye in each well was determined as follows: leakage (%)=[(F−F0)/(FTX−F0)]×100%, where F is the fluorescence intensity recorded in the well, F0 is the intensity in the negative control well, and FTX is the intensity in the positive control well.

[5] = Circular dichroism (CD) secondary structure of polypeptides at different pH; assay type: physicochemical; settings: pH 7.4 or 3.0
Protocol: The secondary structure of the polypeptides at different pH value was then investigated by circular dichroism (CD). […] Distortion of helical conformation was noted when the pH was adjusted back to neutral (FIG. 1C).
The MALLS detector was calibrated using pure toluene and can be used for the determination of the absolute molecular weights (MWs). The MWs of polymers were determined based on the dn/dc value of each polymer sample calculated offline by using the internal calibration system processed by the ASTRA V software (version 5.1.7.3, Wyatt Technology, Santa Barbara, Calif., USA). Circular dichroism (CD) measurements were carried out on a JASCO J-815 CD spectrometer. The polymer samples were prepared at concentrations of 4.4 μM. The solution was placed in a quartz cell with a path length of 0.10 cm. The zeta-potential of polypeptides was evaluated by Malvern Zetasizer. Infrared spectra were recorded on a Perkin Elmer 100 serial FTIR spectrophotometer calibrated with polystyrene film. Lyophilization was performed on a FreeZonelyophilizer (Labconco, Kansas City, Mo., USA). UV light was generated from an OmiCure S1000 UV lamp (EXFO, Mississauga, Canada).

[6] = tested on: H. pylori SS1; assay: SEM analysis of bacterial morphology; assay type: cell-based, Helicobacter pylori; settings: 30 min
Protocol: SEM analysis. SS1 bacterial cells grown in BB with the supplement of 10% FBS under pH 7.4 or 4.0 with or without polypeptides (2.2 μM) treatment were performed using a similar protocol as killing kinetics measurements but with a 30 min incubation time. All the samples were collected into a microfuge tube and pelleted at 4000 rpm for 5 min, and then washed twice with phosphate-buffered saline. Subsequently, bacteria were fixed with paraformaldehyde solution (4%) for 1 h before proceeding, followed by washing with DI water. Dehydration was performed with a series of graded ethanol solution (10%, 25%, 50%, 75%, 95%, and 100%). The dehydrated samples were dried under vacuum overnight before being mounted on carbon tape and coated with gold-platinum for imaging using a Hitachi S-4700 High Solution SEM (Japan).

[7] = tested on: H. pylori SS1; assay: Anti-H. pylori efficacy in vivo (infected C57BL/6J mice); set-up: species or system Helicobacter pylori; settings: oral gavage once daily for 3 d, 2.6 μmol/kg
Protocol: Anti-H. pylori efficacy in vivo. […] For triple therapy, mice were first administered omeprazole (a proton pump inhibitor) through oral gavage at a dose of 400 μmol/kg, followed by a lag time of 30 min before administration of amoxicillin (68.0 μmol/kg) and clarithromycin (19.1 μmol/kg). PL2 and PDL2 in 5% (vol/vol) DMSO (both at 2.6 μmol/kg) were administered through oral gavage once daily for a consecutive 3 d. Water solution with 5% DMSO was served as negative control group. Forty-eight hours after the last administration, mice were killed and the stomach was removed from the abdominal cavity. The stomach was cut along the greater curvature, and the gastric content was removed and rinsed with PBS. The stomach sections were used for assessment of bacterial colonization. For bacterial colonization, a gastric tissue section was suspended in 1 mL PBS and homogenized for H. pylori recovery. The homogenate was serially diluted and spotted onto Columbia agar plate containing vancomycin (20 μg/mL), amphotericin (2 μg/mL), bacitracin (30 μg/mL) and nalidixic acid (10 μg/mL). The plates were then incubated at 37° C. under microaerobic conditions for 5 d, and bacterial colonies were enumerated and adjusted for dilutions.

| Compound | susceptibility of J99A-7, J99A-11, J99C-8 and J99D-1 (growth, OD600) [1] | MIC [2] [µM] | bactericidal activity against SS1 ([3]; pH 3.0, 1 h incubation) | bacteria killed ([3]; pH 7.4, 1 h incubation, 133.7 μM) [%] | dye leakage from anionic liposomes ([4]; pH 4.0) | dye leakage from anionic liposomes ([4]; pH 7.4) | secondary structure (CD), dependence on pH [5] | bacterial membrane/morphology by SEM ([6]; pH 4.0, 2.2 μM) | bacterial membrane/morphology by SEM ([6]; pH 7.4, 2.2 μM) | bactericidal activity against SS1 ([3]; pH 7.4, 1 h incubation) | decrease of bacterial burden in the stomach as compared with the control group [7] | bacteria killed ([3]; pH 7.4, 1 h incubation, 273.7 μM) [%] |
| --- | --- | --- | --- | --- | --- | --- | --- | --- | --- | --- | --- | --- |
| CC[C@H]1OC(=O)[C@H](C)[C@@H](O[C@H]2C[C@@](C)(OC)[C@@H](O)[C@H](C)O2)[C@H](C)[C@@H](O[C@@H]2O[C@H](C)C[C@H](N(C)C)[C@H]2O)[C@](C)(OC)C[C@@H](C)C(=O)[C@H](C)[C@@H](O)[C@]1(C)O [clarithromycin, reference compound] | resistant | 0.07 | no bactericidal activity | ~60 |  |  |  |  |  |  |  |  |
| (PHLG-MHH)20 [PL1] |  |  | killed H. pylori SS1 |  | notable dye leakage | notable dye leakage | stable helical conformation independent of pH change | membrane disruption | membrane disruption | killed H. pylori SS1 |  |  |
| (PDLGA)20-r-(PHDLG-MHH)25 [PDL2] |  |  | unappreciable bactericidal activity |  | unappreciable dye leakage | unappreciable dye leakage | pH-independent non-helical conformation | did not affect the morphology of bacteria | did not affect the morphology of bacteria | unappreciable bactericidal activity | no significant decrease of bacterial burden |  |
| CC1(C)S[C@@H]2[C@H](NC(=O)[C@H](N)c3ccc(O)cc3)C(=O)N2[C@H]1C(=O)O [amoxicillin, reference compound] |  | 0.13 | no bactericidal activity |  |  |  |  |  |  |  |  | ~40 |
